Assays:
[1] = Clearance in Beagle dog assessed as hepatic blood flow at 1 mg/kg, iv; format: ADME, organism-based, Canis lupus familiaris, Liver; conditions: in vivo
[2] = Drugmetabolism in rat hepatocytes assessed as metabolite formation; format: ADME, cell-based, Hepatocyte
Liver [3] = assay: Drugmetabolism in mouse liver microsomes assessed as metabolite formation; format: ADME, Microsome
[4] = Lipophilicity, logD of the compound at pH 7.6 by shake flask assay; format: physicochemical; conditions: buffer
[5] = Drugmetabolism in human hepatocytes assessed as metabolite formation; format: ADME, cell-based, Hepatocyte
Liver [6] = assay: Drugmetabolism in rat liver microsomes assessed as metabolite formation; format: ADME, Microsome
[7] = Kinetic aqueous solubility of the compound in pH 6.8; format: physicochemical; conditions: read-out: Kinetic_solubility
[8] = target: T1, Sodium channel protein type 5 subunit alpha (Homo sapiens, UniProt Q14524); assay: Inhibition of tonic human Nav1.5; format: toxicity
[9] = In vivo inhibition of BTK-dependent B cell activation in C57BL/6 mouse immunized with NP-Ficoll assessed as reduction in anti-NP IgM antibody titer; format: toxicity, organism-based
[10] = Protein binding in rat plasma assessed as unbound fraction; format: ADME, cell-free
[11] = In vivo toxicity in cynomolgus monkey assessed as NOAEL after 28 days; format: organism-based, Macaca fascicularis; conditions: time 28 day
[12] = target: T1, Sodium channel protein type 5 subunit alpha; assay: Inhibition of phasic human Nav1.5; format: toxicity
[13] = In vivo inhibition of BTK-dependent B cell activation in C57BL/6 mouse immunized with NP-Ficoll assessed as reduction in anti-NP IgM antibody titer at 1 mg/kg, po BID dosed for 10 days; format: functional; design: scale not given: the % may be the effect or the level left; conditions: time 10 day
[14] = In vivo inhibition of BTK-dependent B cell activation in C57BL/6 mouse immunized with NP-Ficoll assessed as reduction in anti-NP IgM antibody titer at 0.1 mg/kg, po BID dosed for 10 days; format: functional; design: scale not given: the % may be the effect or the level left; conditions: time 10 day
[15] = In vivo toxicity in Sprague-Dawley rat assessed as compound related pathology findings at 500 mg/kg after 28 days; format: organism-based; conditions: 672 h, time 28 day
Cytochrome P450 1A2 = Cytochrome P450 1A2 (Homo sapiens, UniProt P05177); assay: Inhibition of CYP1A2 in human liver microsomes at 10 to 50 uM; format: ADME; conditions: dose 10-50 µM
[16] = In vivo inhibition of BTK-dependent B cell activation in C57BL/6 mouse immunized with NP-Ficoll assessed as reduction in anti-NP IgM antibody titer at 10 mg/kg, po BID dosed for 10 days; format: functional; design: scale not given: the % may be the effect or the level left; conditions: time 10 day
[17] = target: Voltage-gated inwardly rectifying potassium channel KCNH2 (Homo sapiens, UniProt Q12809); assay: Inhibition of human ERG by patch clamp method; format: toxicity
[18] = Protein binding in human plasma assessed as unbound fraction; format: ADME, cell-free

T1 sequence (Q14524 whole entry): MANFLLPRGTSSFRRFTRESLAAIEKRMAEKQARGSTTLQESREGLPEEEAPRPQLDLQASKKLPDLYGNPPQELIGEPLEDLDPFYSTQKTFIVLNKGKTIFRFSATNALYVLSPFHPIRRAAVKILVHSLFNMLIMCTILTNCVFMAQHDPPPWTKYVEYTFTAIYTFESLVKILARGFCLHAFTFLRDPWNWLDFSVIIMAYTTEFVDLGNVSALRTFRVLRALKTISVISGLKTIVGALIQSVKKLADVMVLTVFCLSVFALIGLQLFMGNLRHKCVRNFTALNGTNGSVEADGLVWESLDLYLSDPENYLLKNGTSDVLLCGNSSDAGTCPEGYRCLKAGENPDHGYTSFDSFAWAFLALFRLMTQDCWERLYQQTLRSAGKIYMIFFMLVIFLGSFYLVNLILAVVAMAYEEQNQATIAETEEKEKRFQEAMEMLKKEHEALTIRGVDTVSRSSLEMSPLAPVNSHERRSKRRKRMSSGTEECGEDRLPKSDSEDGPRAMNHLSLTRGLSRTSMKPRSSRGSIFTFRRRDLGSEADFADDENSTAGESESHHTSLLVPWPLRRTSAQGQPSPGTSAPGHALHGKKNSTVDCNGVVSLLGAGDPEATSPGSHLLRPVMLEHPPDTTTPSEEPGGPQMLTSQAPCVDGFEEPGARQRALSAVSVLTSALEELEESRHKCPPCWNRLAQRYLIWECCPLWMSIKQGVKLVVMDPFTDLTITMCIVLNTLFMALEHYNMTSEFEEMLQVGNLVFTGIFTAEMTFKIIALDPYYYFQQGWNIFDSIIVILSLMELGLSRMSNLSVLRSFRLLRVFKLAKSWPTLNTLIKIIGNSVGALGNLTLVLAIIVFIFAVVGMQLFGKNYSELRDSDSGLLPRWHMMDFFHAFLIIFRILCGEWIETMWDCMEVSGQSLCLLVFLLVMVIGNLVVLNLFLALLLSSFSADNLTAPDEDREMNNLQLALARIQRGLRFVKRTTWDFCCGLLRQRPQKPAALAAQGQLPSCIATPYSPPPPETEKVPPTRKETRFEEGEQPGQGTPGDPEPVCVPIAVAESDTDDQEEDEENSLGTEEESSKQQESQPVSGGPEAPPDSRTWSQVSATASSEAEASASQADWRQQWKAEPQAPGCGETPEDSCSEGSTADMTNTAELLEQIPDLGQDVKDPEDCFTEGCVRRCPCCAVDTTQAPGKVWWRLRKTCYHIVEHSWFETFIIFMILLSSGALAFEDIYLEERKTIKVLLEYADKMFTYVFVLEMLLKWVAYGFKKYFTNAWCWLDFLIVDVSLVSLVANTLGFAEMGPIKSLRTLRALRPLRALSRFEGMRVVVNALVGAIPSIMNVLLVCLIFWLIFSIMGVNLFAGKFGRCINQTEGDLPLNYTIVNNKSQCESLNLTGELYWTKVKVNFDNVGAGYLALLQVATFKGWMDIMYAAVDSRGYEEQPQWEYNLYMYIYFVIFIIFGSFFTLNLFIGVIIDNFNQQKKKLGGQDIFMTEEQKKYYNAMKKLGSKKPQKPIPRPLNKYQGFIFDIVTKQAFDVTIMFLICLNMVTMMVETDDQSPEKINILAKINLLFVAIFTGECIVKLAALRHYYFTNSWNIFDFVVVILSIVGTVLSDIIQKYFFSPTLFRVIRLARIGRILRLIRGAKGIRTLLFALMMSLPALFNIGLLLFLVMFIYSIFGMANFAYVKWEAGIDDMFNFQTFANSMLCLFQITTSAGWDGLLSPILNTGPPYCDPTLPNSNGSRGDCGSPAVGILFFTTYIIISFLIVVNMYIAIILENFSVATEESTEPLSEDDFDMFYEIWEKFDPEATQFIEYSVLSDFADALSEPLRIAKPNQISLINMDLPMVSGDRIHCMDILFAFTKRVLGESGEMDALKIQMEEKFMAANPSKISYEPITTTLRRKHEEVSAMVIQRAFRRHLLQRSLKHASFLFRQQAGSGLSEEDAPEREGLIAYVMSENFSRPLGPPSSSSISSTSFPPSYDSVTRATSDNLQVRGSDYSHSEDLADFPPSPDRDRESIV
Voltage-gated inwardly rectifying potassium channel KCNH2, sequence (Q12809 whole entry): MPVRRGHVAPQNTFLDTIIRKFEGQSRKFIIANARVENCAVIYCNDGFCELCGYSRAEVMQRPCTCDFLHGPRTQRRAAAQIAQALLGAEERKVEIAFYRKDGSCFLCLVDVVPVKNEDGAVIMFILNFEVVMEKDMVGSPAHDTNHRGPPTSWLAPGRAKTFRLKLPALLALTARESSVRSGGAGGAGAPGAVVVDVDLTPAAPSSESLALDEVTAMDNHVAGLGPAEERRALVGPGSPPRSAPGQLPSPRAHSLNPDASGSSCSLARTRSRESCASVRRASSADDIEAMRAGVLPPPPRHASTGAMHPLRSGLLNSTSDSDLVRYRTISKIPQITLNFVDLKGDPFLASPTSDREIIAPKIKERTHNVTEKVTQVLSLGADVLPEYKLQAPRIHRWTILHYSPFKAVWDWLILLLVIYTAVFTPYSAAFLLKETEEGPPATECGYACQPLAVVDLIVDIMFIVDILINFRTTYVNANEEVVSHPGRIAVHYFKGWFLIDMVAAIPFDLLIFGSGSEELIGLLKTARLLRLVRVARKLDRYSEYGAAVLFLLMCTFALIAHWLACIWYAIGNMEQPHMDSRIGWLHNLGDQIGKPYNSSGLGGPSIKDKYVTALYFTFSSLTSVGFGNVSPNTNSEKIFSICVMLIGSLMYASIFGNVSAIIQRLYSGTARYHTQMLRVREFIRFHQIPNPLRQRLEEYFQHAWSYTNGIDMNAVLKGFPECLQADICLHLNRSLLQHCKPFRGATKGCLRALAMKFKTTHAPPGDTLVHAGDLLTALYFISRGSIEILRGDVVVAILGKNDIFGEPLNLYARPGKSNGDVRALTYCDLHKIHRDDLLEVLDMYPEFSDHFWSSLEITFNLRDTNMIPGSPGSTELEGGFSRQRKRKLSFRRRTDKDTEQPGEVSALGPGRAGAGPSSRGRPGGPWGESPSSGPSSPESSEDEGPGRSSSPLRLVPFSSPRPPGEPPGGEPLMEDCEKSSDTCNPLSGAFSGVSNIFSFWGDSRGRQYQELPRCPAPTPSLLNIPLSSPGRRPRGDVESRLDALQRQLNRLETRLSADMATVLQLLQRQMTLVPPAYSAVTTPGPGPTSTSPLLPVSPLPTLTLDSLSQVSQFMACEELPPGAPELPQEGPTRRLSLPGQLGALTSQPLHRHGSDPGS
Cytochrome P450 1A2, sequence (P05177 whole entry): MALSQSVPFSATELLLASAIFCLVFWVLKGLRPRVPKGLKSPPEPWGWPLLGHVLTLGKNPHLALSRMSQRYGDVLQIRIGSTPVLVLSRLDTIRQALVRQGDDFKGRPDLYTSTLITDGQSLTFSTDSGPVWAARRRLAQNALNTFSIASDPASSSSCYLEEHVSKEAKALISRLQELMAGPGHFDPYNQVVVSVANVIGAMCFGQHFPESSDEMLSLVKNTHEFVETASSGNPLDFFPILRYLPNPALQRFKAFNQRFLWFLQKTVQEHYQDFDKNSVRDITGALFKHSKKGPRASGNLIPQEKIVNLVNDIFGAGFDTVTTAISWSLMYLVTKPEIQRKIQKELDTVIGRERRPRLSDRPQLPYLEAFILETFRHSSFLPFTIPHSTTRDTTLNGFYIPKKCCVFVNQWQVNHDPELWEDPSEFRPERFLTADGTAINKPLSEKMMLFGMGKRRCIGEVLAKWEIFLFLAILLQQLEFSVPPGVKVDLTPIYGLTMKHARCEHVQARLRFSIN

For Cn1cc(Nc2nccc(-c3ccc4c(c3)CN(C3COC3)CC[C@H]4NC(=O)c3cn(C(C)(C)C)nn3)n2)cn1 [BIIB-091], the QH [1] was 33%, the Drug metabolism [2] was “Metabolite_Notdetected” and the Drug metabolism (Liver [3]) was “Metabolite_Notdetected”. The logD [4] was 2.2, the Drug metabolism [5] was “Metabolite_Notdetected” and the Drug metabolism (Liver [6]) was “Metabolite_Notdetected”. It also gave a solubility kinetic [7] greater than 0.05 mg/mL, an IC50 [8] greater than 25 µM and an ED50 [9] of 1.95 mg/kg. It also gave a fraction unbound [10] of 0.1, an NOAEL at 672 h [11] of 250 mg/kg and an IC50 [12] greater than 25 µM. The Activity [13] was 59%, the Activity [14] was 44% and the Activity [15] was “Non-Toxic”. The “inhibition (INH)” value (Cytochrome P450 1A2) was “Not Active”, the Activity [16] was 77% and the IC50 [17] was greater than 25 µM. For the same compound, the fraction unbound [18] was 0.26.
